Reference: ChEMBL document CHEMBL1201862, “PubChem BioAssay data set” (2004)
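Briefly, cells in 96-well plates were exposed to five compound concentrations for 48 h, and endpoints were estimated by linear interpolation. Here, GI50 denotes the concentration required for 50% inhibition of growth.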 Activity calls are given as the source filed them. No stated cut-off is given here; in the data, active = GI50 up to about 1.1 µM and inactive = higher.

Legend:
Assay in all cases: NCI anticancer screen, dose series, 48 h
KM12 = tested on: KM12
UACC-62 = tested on: UACC-62
786-0 = tested on: 786-0
OVCAR-5 = tested on: OVCAR-5
SK-MEL-2 = tested on: SK-MEL-2
TK-10 = tested on: TK-10
CAKI-1 = tested on: CAKI-1
HOP-62 = tested on: HOP-62
IGROV-1 = tested on: IGROV-1
SW-620 = tested on: SW-620
U-251 = tested on: U-251
HT-29 = tested on: HT-29
CCRF-CEM = tested on: CCRF-CEM
UACC-257 = tested on: UACC-257
A549 = tested on: A549
SF-295 = tested on: SF-295
UO-31 = tested on: UO-31
MOLT-4 = tested on: MOLT-4
HCC 2998 = tested on: HCC 2998
Malme-3M = tested on: Malme-3M
K562 = tested on: K562
NCI-H23 = tested on: NCI-H23
COLO 205 = tested on: COLO 205
SNB-19 = tested on: SNB-19
M14 = tested on: M14
DMS-273 = tested on: DMS-273
LXFL 529 = tested on: LXFL 529
SK-OV-3 = tested on: SK-OV-3
HOP-18 = tested on: HOP-18
SK-MEL-28 = tested on: SK-MEL-28
SK-MEL-5 = tested on: SK-MEL-5
HCT-116 = tested on: HCT-116
LOX IMVI = tested on: LOX IMVI
DLD-1 = tested on: DLD-1
M19-MEL = tested on: M19-MEL
OVCAR-4 = tested on: OVCAR-4
NCI-H226 = tested on: NCI-H226
A498 = tested on: A498
RPMI-8226 = tested on: RPMI-8226
OVCAR-8 = tested on: OVCAR-8
DMS-114 = tested on: DMS-114
SF-539 = tested on: SF-539
OVCAR-3 = tested on: OVCAR-3
EKVX = tested on: EKVX
SNB-75 = tested on: SNB-75
ACHN = tested on: ACHN
SN12C = tested on: SN12C
SNB-78 = tested on: SNB-78
RXF 393 = tested on: RXF 393
HCT-15 = tested on: HCT-15
HL-60 = tested on: HL-60
NCI-H522 = tested on: NCI-H522
NCI-H460 = tested on: NCI-H460
KM-20L2 = tested on: KM-20L2
SF-268 = tested on: SF-268
SR = tested on: SR
HOP-92 = tested on: HOP-92

In the case of `O=C(CSc1nnc(Cc2ccccc2)o1)Nc1ccc(Cl)cc1`, the GI50 (KM12) is reported as > 100 µM (inactive), the GI50 (UACC-62) is reported as 41.8 µM (inactive) and the GI50 (786-0) is reported as > 100 µM (inactive). For the same compound, the GI50 (OVCAR-5) was 70.3 µM (inactive), the GI50 (SK-MEL-2) was 82 µM (inactive) and the GI50 (TK-10) was > 100 µM (inactive). For the same compound, the GI50 (CAKI-1) was 59.2 µM (inactive), the GI50 (HOP-62) was > 100 µM (inactive) and the GI50 (IGROV-1) was 92 µM (inactive). The GI50 (SW-620) was > 100 µM (inactive), the GI50 (U-251) was > 100 µM (inactive) and the GI50 (HT-29) was 47.4 µM (inactive). For the same compound, the GI50 (CCRF-CEM) was > 100 µM (inactive), the GI50 (UACC-257) was > 100 µM (inactive) and the GI50 (A549) was > 100 µM (inactive). For the same compound, the GI50 (SF-295) was 66.8 µM (inactive), the GI50 (UO-31) was > 100 µM (inactive) and the GI50 (MOLT-4) was > 100 µM (inactive). For the same compound, the GI50 (HCC 2998) was > 100 µM (inactive), the GI50 (Malme-3M) was > 100 µM (inactive) and the GI50 (K562) was 87.7 µM (inactive). For the same compound, the GI50 (NCI-H23) was 52.2 µM (inactive), the GI50 (COLO 205) was > 100 µM (inactive) and the GI50 (SNB-19) was > 100 µM (inactive). For the same compound, the GI50 (M14) was > 100 µM (inactive), the GI50 (DMS-273) was 67.8 µM (inactive) and the GI50 (LXFL 529) was 86.3 µM (inactive). For the same compound, the GI50 (SK-OV-3) was > 100 µM (inactive), the GI50 (HOP-18) was > 100 µM (inactive) and the GI50 (SK-MEL-28) was > 100 µM (inactive). The GI50 (SK-MEL-5) was 57.8 µM (inactive), the GI50 (HCT-116) was > 100 µM (inactive) and the GI50 (LOX IMVI) was > 100 µM (inactive). For the same compound, the GI50 (DLD-1) was > 100 µM (inactive), the GI50 (M19-MEL) was > 100 µM (inactive) and the GI50 (OVCAR-4) was 58.7 µM (inactive). For the same compound, the GI50 (NCI-H226) was 86.5 µM (inactive), the GI50 (A498) was 46.8 µM (inactive) and the GI50 (RPMI-8226) was > 100 µM (inactive). The GI50 (OVCAR-8) was 96.6 µM (inactive), the GI50 (DMS-114) was 39.4 µM (inactive) and the GI50 (SF-539) was > 100 µM (inactive). For the same compound, the GI50 (OVCAR-3) was 68.2 µM (inactive), the GI50 (EKVX) was 32.7 µM (inactive) and the GI50 (SNB-75) was 67.8 µM (inactive). The GI50 (ACHN) was 75.9 µM (inactive), the GI50 (SN12C) was > 100 µM (inactive) and the GI50 (SNB-78) was > 100 µM (inactive). For the same compound, the GI50 (RXF 393) was > 100 µM (inactive), the GI50 (HCT-15) was > 100 µM and the GI50 (HL-60) was > 100 µM (inactive). For the same compound, the GI50 (NCI-H522) was 75.3 µM (inactive), the GI50 (NCI-H460) was 77.3 µM (inactive) and the GI50 (KM-20L2) was 78.5 µM (inactive).
`COP(=O)(CC(=O)C1OC(C)(C)OC1C(O)COCc1ccccc1)OC` (stereo not drawn) was tested, and the GI50 (SF-268) was > 100 µM (inactive), the GI50 (KM12) was > 100 µM (inactive) and the GI50 (UACC-62) was > 100 µM (inactive). The GI50 (786-0) was > 100 µM (inactive), the GI50 (OVCAR-5) was > 100 µM (inactive) and the GI50 (SK-MEL-2) was > 100 µM (inactive). For the same compound, the GI50 (TK-10) was > 100 µM (inactive), the GI50 (CAKI-1) was > 100 µM (inactive) and the GI50 (HOP-62) was > 100 µM (inactive). The GI50 (IGROV-1) was > 100 µM (inactive), the GI50 (SW-620) was > 100 µM (inactive) and the GI50 (U-251) was > 100 µM (inactive). The GI50 (HT-29) was > 100 µM (inactive), the GI50 (CCRF-CEM) was > 100 µM (inactive) and the GI50 (UACC-257) was > 100 µM (inactive). The GI50 (A549) was > 100 µM (inactive), the GI50 (SF-295) was > 100 µM (inactive) and the GI50 (UO-31) was > 100 µM (inactive). For the same compound, the GI50 (MOLT-4) was > 100 µM (inactive), the GI50 (SR) was > 100 µM (inactive) and the GI50 (HCC 2998) was > 100 µM (inactive). The GI50 (Malme-3M) was > 100 µM (inactive), the GI50 (K562) was > 100 µM (inactive) and the GI50 (NCI-H23) was > 100 µM (inactive). For the same compound, the GI50 (COLO 205) was > 100 µM (inactive), the GI50 (M14) was > 100 µM (inactive) and the GI50 (DMS-273) was > 100 µM (inactive). For the same compound, the GI50 (LXFL 529) was > 100 µM (inactive), the GI50 (HOP-18) was > 100 µM (inactive) and the GI50 (SK-MEL-28) was > 100 µM (inactive). The GI50 (SK-MEL-5) was 46.2 µM (inactive), the GI50 (HCT-116) was > 100 µM (inactive) and the GI50 (LOX IMVI) was > 100 µM (inactive). The GI50 (DLD-1) was > 100 µM (inactive), the GI50 (M19-MEL) was > 100 µM (inactive) and the GI50 (OVCAR-4) was > 100 µM (inactive). For the same compound, the GI50 (HOP-92) was > 100 µM (inactive), the GI50 (NCI-H226) was > 100 µM (inactive) and the GI50 (A498) was > 100 µM (inactive). The GI50 (RPMI-8226) was > 100 µM (inactive), the GI50 (OVCAR-8) was > 100 µM (inactive) and the GI50 (DMS-114) was > 100 µM (inactive). For the same compound, the GI50 (SF-539) was > 100 µM (inactive), the GI50 (OVCAR-3) was > 100 µM (inactive) and the GI50 (EKVX) was > 100 µM (inactive). For the same compound, the GI50 (SNB-75) was > 100 µM (inactive), the GI50 (ACHN) was > 100 µM (inactive) and the GI50 (SN12C) was > 100 µM (inactive). For the same compound, the GI50 (SNB-78) was > 100 µM (inactive), the GI50 (RXF 393) was > 100 µM (inactive) and the GI50 (HCT-15) was > 100 µM. The GI50 (HL-60) was > 100 µM (inactive), the GI50 (NCI-H460) was > 100 µM (inactive) and the GI50 (KM-20L2) was > 100 µM (inactive).
